The source of these data is patent publication EP0399422A1, “Benzocycloalkane derivatives and production thereof” (Takeda Chemical Industries, Ltd., priority 1989, dated 1990).

The subject of the experiment is Acyl-CoA:cholesterol acyl transferase (ACAT). Nature of the experiment: Acyl-CoA:cholesterol acyl transferase (ACAT) inhibiting activity. The settings on record: inhibition of labeled cholesterol ester formation at 10⁻⁶ M of the test compounds; small intestine mucosa microsome fraction. More on the design: tested at 1 µM. It counts as biochemical, male Sprague-Dawley rats. The method, then:
An ACAT enzyme preparation was obtained from the small intestine mucosa microsome fraction from male Sprague-Dawley rats of 6 weeks of age fasted for 20 hours, as described by Heider et al. [Journal of Lipid Research, 24, 1127 (1982)].
The ACAT activity was calculated by determining the yield of a labeled cholesterol ester from [1-¹⁴C]oleoyl-CoA and endogenous cholesterol using the method of Helgerud et al. [Journal of Lipid Research, 22, 271 (1981)].
The inhibition percentages of the labeled cholesterol ester formation at 10⁻⁶ M of the test compounds are shown in Table 1 as ACAT inhibiting activity indices.
For `O=C(Nc1ccc(F)cc1F)N(Cc1ccccc1)C1Cc2ccccc2C1` [Example 2, N-Benzyl-N′-(2,4-difluorophenyl)-N-(2-indanyl)urea], the “% ACAT inhibition” value was 65%.

For the compound `Cc1cc(C)c(CN(C(=O)Nc2ccc(F)cc2F)C2Cc3ccccc3C2)c(C)c1` [Example 17, N-(2,4-Difluorophenyl)-N′-(2-indanyl)-N′-(2,4,6-trimethylbenzyl)urea], the “% ACAT inhibition” value was determined as 75%.

For `O=C(Nc1ccc(F)cc1F)N(Cc1ccccc1)C1CCCc2ccccc21` (stereo not drawn) [Example 58, N-Benzyl-N′-(2,4-difluorophenyl)-N-(1,2,3,4-tetrahydro-1-naphthyl)urea], the “% ACAT inhibition” value is 94%.

With `CC(C)c1ccc(CN(C(=O)Nc2ccc(F)cc2F)C2Cc3ccccc3C2)cc1` [Example 13, N-(4-Isopropylbenzyl)-N′-(2,4-difluorophenyl)-N-(2-indanyl)urea], the “% ACAT inhibition” value stood at 86%.

Consider `COc1ccccc1CN(C(=O)Nc1ccc(F)cc1F)C1Cc2ccccc2C1` [Example 19, N-(2,4-Difluorophenyl)-N′-(2-indanyl)-N′-(2-methoxybenzyl)urea], for which the “% ACAT inhibition” value stood at 55%.

Regarding `CC(c1ccccc1)N(C(=O)Nc1ccc(F)cc1F)C1Cc2ccccc2C1` (stereo not drawn) [Example 6, N-(2,4-Difluorophenyl)-N′-(2-indanyl)-N′-(1-phenylethyl)urea], the “% ACAT inhibition” value is 80%.

Turning to `O=C(Nc1ccc(F)cc1F)N(Cc1ccccc1)C1CCCCc2ccccc21` (stereo not drawn) [Example 59, N-Benzyl-N′-(2,4-difluorophenyl)-N-(6,7,8,9-tetrahydro-5H-5-benzocycloheptenyl)urea], the “% ACAT inhibition” value was 80%.

In the case of `Cc1cc(CN(C(=O)Nc2ccc(F)cc2F)C2Cc3ccccc3C2)c(C(C)C)cc1O` [Example 46, N-(2,4-Difluorophenyl)-N′-(4-hydroxy-2-isopropyl-5-methylbenzyl)-N′-(2-indanyl)urea], the “% ACAT inhibition” value is recorded as 77%.

In the case of `Cc1cc(CN(C(=O)Nc2ccc(F)cc2F)C2Cc3ccccc3C2)c(C)cc1O` [Example 37, N-(2,4-Difluorophenyl)-N′-(4-hydroxy-2,5-dimethylbenzyl)-N′-(2-indanyl)urea], the “% ACAT inhibition” value amounted to 93%.

On to `O=C(Nc1ccc(F)cc1F)N(Cc1ccccc1)C1CCc2ccccc21` (stereo not drawn) [Example 57, N-Benzyl-N′-(2,4-difluorophenyl)-N-(1-indanyl)urea], for which the “% ACAT inhibition” value came out at 84%.

Turning to `COc1cc(CN(C(=O)Nc2ccc(F)cc2F)C2Cc3ccccc3C2)c(OC)c(C)c1C` [Example 35, N-(2,4-Difluorophenyl)-N′-(2-indanyl)-N′-(2,5-dimethoxy-3,4-dimethylbenzyl)urea], the “% ACAT inhibition” value was 58%.

As for `Cc1ccc(CN(C(=O)Nc2ccc(F)cc2F)C2Cc3ccccc3C2)cc1` [Example 12, N-(2,4-Difluorophenyl)-N′-(2-indanyl)-N′-(4-methylbenzyl)urea], the “% ACAT inhibition” value amounted to 77%.

As to `COc1ccc(OC)c2c1CC(N(Cc1ccccc1)C(=O)Nc1ccc(F)cc1F)C2` [Example 28, N-Benzyl-N′-(2,4-difluorophenyl)-N-(4,7-dimethoxy-2-indanyl)urea], the “% ACAT inhibition” value was 56%.

Regarding `O=C(Nc1ccc(F)cc1F)N(Cc1ccc(Cl)cc1)C1Cc2ccccc2C1` [Example 5, N-(4-Chlorobenzyl)-N′-(2,4-difluorophenyl)-N-(2-indanyl)urea], the “% ACAT inhibition” value was determined as 76%.

`Cc1cc(O)c(C(C)(C)C)cc1CN(C(=O)Nc1ccc(F)cc1F)C1CCCc2ccccc2C1` (stereo not drawn) [Example 50, N-(5-tert-Butyl-4-hydroxy-2-methylbenzyl)-N′-(2,4-difluorophenyl)-N-(6,7,8,9-tetrahydro-5H-6-benzocycloheptenyl)urea]: the “% ACAT inhibition” value is on record as 85%.

In the case of `Cc1cccc(CN(C(=O)Nc2ccc(F)cc2F)C2Cc3ccccc3C2)c1` [Example 11, N-(2,4-Difluorophenyl)-N′-(2-indanyl)-N′-(3-methylbenzyl)urea], the “% ACAT inhibition” value is given as 64%.

As to `O=C(Nc1ccc(F)cc1F)N(Cc1ccccc1)C1CCc2ccccc2C1` (stereo not drawn) [Example 44, N-Benzyl-N′-(2,4-difluorophenyl)-N-(1,2,3,4-tetrahydro-2-naphthyl)urea], the “% ACAT inhibition” value came out at 63%.

Turning to `COc1cc(CN(C(=O)Nc2ccc(F)cc2F)C2CCCc3ccccc32)cc(OC)c1O` (stereo not drawn) [Example 61, N-(2,4-Difluorophenyl)-N′-(4-hydroxy-3,5-dimethoxybenzyl)-N′-(1,2,3,4-tetrahydro-1-naphthyl)urea], the “% ACAT inhibition” value was found to be 53%.

`Cc1ccccc1CN(C(=O)Nc1ccc(F)cc1F)C1Cc2ccccc2C1` [Example 10, N-(2,4-Difluorophenyl)-N′-(2-indanyl)-N′-(2-methylbenzyl)urea]: the “% ACAT inhibition” value is 72%.

For `COc1cc(CN(C(=O)Nc2ccc(F)cc2F)C2CCCCc3ccccc32)cc(OC)c1O` (stereo not drawn) [Example 62, N-(2,4-Difluorophenyl)-N′-(6,7,8,9-tetrahydro-5H-5-benzocycloheptenyl)-N′-(4-hydroxy-3,5-dimethoxybenzyl)urea], the “% ACAT inhibition” value worked out at 69%.

`Cc1cc(C)c2c(c1)CC(N(Cc1ccccc1)C(=O)Nc1ccc(F)cc1F)C2` (stereo not drawn) [Example 27, N-Benzyl-N′-(2,4-difluorophenyl)-N-(4,6-dimethyl-2-indanyl)urea]: the “% ACAT inhibition” value is listed as 58%.

Consider `O=C(Nc1ccc(F)cc1F)N(CC1CCCCC1)C1Cc2ccccc2C1` [Example 26, N-Cyclohexylmethyl-N′-(2,4-difluorophenyl)-N-(2-indanyl)urea], for which the “% ACAT inhibition” value was found to be 60%.

As to `COc1cc(CN(C(=O)Nc2ccc(F)cc2F)C2CCc3ccccc32)cc(OC)c1O` (stereo not drawn) [Example 60, N-(2,4-Difluorophenyl)-N′-(4-hydroxy-3,5-dimethoxybenzyl)-N′-(1-indanyl)urea], the “% ACAT inhibition” value was 83%.

As to `O=C(Nc1ccc(F)cc1F)N(C1Cc2ccccc2C1)C(c1ccccc1)c1ccccc1` [Example 9, N-(2,4-Difluorophenyl)-N′-(2-indanyl)-N′-diphenyl methylurea], the “% ACAT inhibition” value was 53%.

Turning to `COc1cc(CN(C(=O)Nc2ccc(F)cc2F)C2Cc3ccccc3C2)cc(OC)c1OC` [Example 22, N-(2,4-Difluorophenyl)-N′-(2-indanyl)-N′-(3,4,5-trimethoxybenzyl)urea], the “% ACAT inhibition” value came to 55%.

For the compound `CCC(c1ccccc1)N(C(=O)Nc1ccc(F)cc1F)C1Cc2ccccc2C1` (stereo not drawn) [Example 7, N-(2,4-Difluorophenyl)-N′-(2-indanyl)-N′-(1-phenylpropyl)urea], the “% ACAT inhibition” value was determined as 72%.

Turning to `CC(C)c1cc(CN(C(=O)Nc2ccc(F)cc2F)C2Cc3ccccc3C2)cc(C(C)C)c1O` [Example 40, N-(2,4-Difluorophenyl)-N′-(4-hydroxy-3,5-diisopropylbenzyl)-N′-(2-indanyl)urea], the “% ACAT inhibition” value is listed as 83%.

For the compound `Cc1ccc(C)c(CN(C(=O)Nc2ccc(F)cc2F)C2Cc3ccccc3C2)c1` [Example 16, N-(2,4-Difluorophenyl)-N′-(2-indanyl)-N′-(2,5-dimethylbenzyl)urea], the “% ACAT inhibition” value came out at 86%.

Take `Cc1cc(O)c(C(C)C)cc1CN(C(=O)Nc1ccc(F)cc1F)C1Cc2ccccc2C1` [Example 45, N-(2,4-Difluorophenyl)-N′-(4-hydroxy-5-isopropyl-2-methylbenzyl)-N′-(2-indanyl)urea]: the “% ACAT inhibition” value worked out at 96%.

Turning to `COc1cc(C)c(CN(C(=O)Nc2ccc(F)cc2F)C2Cc3ccccc3C2)cc1C` [Example 36, N-(2,4-Difluorophenyl)-N′-(2-indanyl)-N′-(4-methoxy-2,5-dimethylbenzyl)urea], the “% ACAT inhibition” value is 72%.

As for `O=C(Nc1ccc(F)cc1F)N(Cc1cccs1)C1Cc2ccccc2C1` [Example 23, N-(2,4-Difluorophenyl)-N′-(2-indanyl)-N′-(2-thienylmethyl)urea], the “% ACAT inhibition” value turned out to be 57%.

Consider `Cc1ccc(C)c(CN(C(=O)Nc2ccc(F)cc2F)C2CCCc3ccccc3C2)c1` (stereo not drawn) [Example 56, N-(2,4-Difluorophenyl)-N′-(6,7,8,9-tetrahydro-5H-6-benzocycloheptenyl)-N′-(2,5-dimethylbenzyl)urea], for which the “% ACAT inhibition” value is listed as 79%.

As to `Cc1cc(CN(C(=O)Nc2ccc(F)cc2F)C2Cc3ccccc3C2)c(C)c(C)c1O` [Example 39, N-(2,4-Difluorophenyl)-N′-(4-hydroxy-2,3,5-trimethylbenzyl)-N′-(2-indanyl)urea], the “% ACAT inhibition” value was 89%.

Take `CC(C)(C)c1cc(CN(C(=O)Nc2ccc(F)cc2F)C2Cc3ccccc3C2)cc(C(C)(C)C)c1O` [Example 42, N-(3,5-Di-tert-butyl-4-hydroxybenzyl)-N′-(2,4-difluorophenyl)-N-(2-indanyl)urea]: the “% ACAT inhibition” value is listed as 62%.

`COc1ccc(CN(C(=O)Nc2ccc(F)cc2F)C2Cc3ccccc3C2)c(OC)c1` [Example 20, N-(2,4-Difluorophenyl)-N′-(2-indanyl)-N′-(2,4-dimethoxybenzyl)urea]: the “% ACAT inhibition” value is on record as 72%.

On to `COc1cc(CN(C(=O)Nc2ccc(F)cc2F)C2Cc3ccccc3C2)ccc1O` [Example 33, N-(2,4-Difluorophenyl)-N′-(4-hydroxy-3-methoxybenzyl)-N′-(2-indanyl)urea], for which the “% ACAT inhibition” value worked out at 57%.

As for `Cc1ccc(CN(C(=O)Nc2ccc(F)cc2F)C2Cc3ccccc3C2)c(C)c1` [Example 15, N-(2,4-Difluorophenyl)-N′-(2-indanyl)-N′-(2,4-dimethylbenzyl)urea], the “% ACAT inhibition” value is reported as 88%.

For `O=C(Nc1ccc(F)cc1F)N(Cc1ccccc1)C1CCCc2ccccc2C1` (stereo not drawn) [Example 49, N-Benzyl-N′-(2,4-difluorophenyl)-N-(6,7,8,9-tetrahydro-5H-6-benzocycloheptenyl)urea], the “% ACAT inhibition” value is 89%.

As to `Cc1cc(O)c(C(C)(C)C)cc1CN(C(=O)Nc1ccc(F)cc1F)C1Cc2ccccc2C1` [Example 41, N-(5-tert-Butyl-4-hydroxy-2-methylbenzyl)-N′-(2,4-difluorophenyl)-N-(2-indanyl)urea], the “% ACAT inhibition” value was 95%.
